Four compounds from US20060069132A1, “Azolecarboxamide herbicides” (priority 2004, published 2006) can be followed below.

Molecules are shown by their SMILES.

One assay relates to bermudagrass. Nature of the assay: Test C pre-/postemergence herbicide test. Type of assay: in vivo, Cynodon dactylon. The method, boiled down: (§1)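 Pre/post spray; non-phytotoxic solvent + surfactant. Post-timing 1–4 leaves, 2–18 cm. Read-out: visual % control vs untreated, day 12–14, greenhouse.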
Assay [1] concerns common (oilseed) sunflower. Description: Test C pre-/postemergence herbicide test. Type of assay: in vivo, Helianthus annuus. The text has this: Seeds of plant species selected from bermudagrass (Cynodon dactylon (L.) Pers.), Surinam grass (Urochloa decumbens (Staph) R. D. Webster, previously named Brachiaria decumbens Stapf), cocklebur (Xanthium strumarium L.), corn (Zea mays L.), large crabgrass (Digitaria sanguinalis (L.) Scop.), woolly cupgrass (Eriochloa villosa (Thunb.) Kunth), giant foxtail (Setaria faberi Herrm.), goosegrass (Eleusine indica (L.) Gaertn.), johnsongrass (Sorghum halepense (L.) Pers.), kochia (Kochia scoparia (L.) Schrad.), lambsquarters (Chenopodium album L.), morningglory (Ipomoea coccinea L.), eastern black nightshade (Solanum ptycanthum Dunal), yellow nutsedge (Cyperus esculentus L.), pigweed (Amaranthus retroflexus L.), common ragweed (Ambrosia elatior L.), soybean (Glycine max (L.) Merr.), common (oilseed) sunflower (Helianthus annuus L.) and velvetleaf (Abutilon theophrasti Medik.) were planted and treated preemergence with test chemicals formulated in a non-phytotoxic solvent mixture which included a surfactant.
At the same time, plants selected from these crop and weed species and also winter barley (Hordeum vulgare L.), blackgrass (Alopecurus myosuroides Huds.), canarygrass (Phalaris minor Retz.), chickweed (Stellaria media (L.) Vill.), downy bromegrass (Bromus tectorum L.), green foxtail (Setaria viridis (L.) Beauv.), Italian ryegrass (Lolium multiflorum Lam.), wheat (Triticum aestivum L.), wild oat (Avenafatua L.) and windgrass (Apera spica-venti (L.) Beauv.) were treated with postemergence applications of some of the test chemicals formulated in the same manner. Plants ranged in height from 2 to 18 cm (1- to 4-leaf stage) for postemergence treatments. Plant species in the flooded paddy test consisted of rice (Oryza sativa), smallflower umbrella sedge (Cyperus difformis L.), ducksalad (Heteranthera limosa (Sw.) Willd.) and barnyardgrass (Echinochloa crus-galli (L.) Beauv.) grown to the 2-leaf stage for testing. Treated plants and controls were maintained in a greenhouse for 12 to 14 days, after which time all species were compared to controls and visually evaluated. Plant response ratings, summarized in Table C, are based on a scale of 0 to 100 where 0 is no effect and 100 is complete control. A dash (-) response means no test result.

In another assay the test system is woolly cupgrass. Nature of the assay: Test C pre-/postemergence herbicide test. Type of assay: in vivo, Eriochloa villosa. In outline: as §1
The next assay relates to common ragweed. Nature of the assay: Test C pre-/postemergence herbicide test. Type of assay: in vivo, Ambrosia elatior. Further details: key to Plant response rating, Ragweed: 0 = no effect, 100 = complete control. In outline:
as §1

The next assay deals with giant foxtail. Nature of the assay: Test C pre-/postemergence herbicide test. Type of assay: in vivo, Setaria faberi. In outline: as §1
In a further assay the test system is goosegrass. Nature of the assay: Test C pre-/postemergence herbicide test. Type of assay: in vivo, Eleusine indica. In outline:
as §1

For assay [2], the system named is smallflower umbrella sedge. Description: Test C flooded paddy test. Type of assay: in vivo, Cyperus difformis. To be noted: for Plant response rating, Sedge, Umbrella: 500 g ai/ha, visual rating after 12 to 14 days.
Setting [3] is: 62 g ai/ha, preemergence, scale 0 to 100, 0 no effect, 100 complete control.
[4] abbreviates: 250 g ai/ha, scale 0-100, preemergence.
Setting [5] is: 500 g ai/ha, scale 0 to 100 (0 no effect, 100 complete control), visual, 12 to 14 days, preemergence.
The mark [6] stands for this setting: 62 g ai/ha, preemergence, scale 0 to 100.
[7] abbreviates: Postemergence, 250 g ai/ha, scale 0 to 100, 0 no effect, 100 complete control.
The mark [8] stands for this setting: postemergence, 125 g ai/ha, scale 0 to 100.
[9] abbreviates: postemergence, 62 g ai/ha, scale 0 to 100.
The mark [10] stands for this setting: 125 g ai/ha, scale 0 to 100 (0 no effect, 100 complete control).
Where [11] appears, read: 250 g ai/ha, scale of 0 to 100, 0 is no effect, 100 is complete control.
[12] abbreviates: scale 0 to 100 (0 no effect, 100 complete control).

Consider `CCNC(=S)c1cccc(NC(=O)c2nn(C(C)(C)C)nc2C)c1` [Compound 420], for which the “Plant response rating, Bermudagrass” value with bermudagrass (setting [3]), in the assay with bermudagrass (setting [4]) and in the assay with bermudagrass (setting [5]) was 100 each time. The “Plant response rating (0 = no effect, 100 = complete control), Bermudagrass” value in the assay with bermudagrass (125 g ai/ha, preemergence) is given as 100. Further, the “Plant response rating, Sunflower” value in assay [1] (setting [6]) turned out to be 0; in assay [1] (setting [5]), 65. For the same compound, the “Plant response rating (0 = no effect, 100 = complete control), Sunflower” value in assay [1] (125 g ai/ha, preemergence) is recorded as 0. The “Plant response rating, Cupgrass, Woolly” value with woolly cupgrass (setting [6]) was determined as 0; in the assay on woolly cupgrass (setting [4]) it was 20; in the assay with woolly cupgrass (setting [5]) it was 65. For the same compound, in the assay on woolly cupgrass (125 g ai/ha, preemergence), the “Plant response rating (0 = no effect, 100 = complete control), Cupgrass, Woolly” value is recorded as 10. In addition, the figures for the “Plant response rating, Ragweed” value with common ragweed (setting [6]) and in the assay on common ragweed (setting [5]) were 0 and 85, respectively. Moreover, in the assay on common ragweed (125 g ai/ha, preemergence), the “Plant response rating (0 = no effect, 100 = complete control), Ragweed” value is recorded as 55. Besides, the “Plant response rating, Foxtail, Giant” value in the assay with giant foxtail (setting [6]) is listed as 20; with giant foxtail (setting [4]), 100; with giant foxtail (setting [5]), 100. The “Plant response rating (0 = no effect, 100 = complete control), Foxtail, Giant” value in the assay with giant foxtail (125 g ai/ha, preemergence) was determined as 90. In addition, the entries for the “Plant response rating, Goosegrass” value with goosegrass (setting [6]), in the assay on goosegrass (setting [4]) and with goosegrass (setting [5]) were 95, 100 and 100, respectively. For the same compound, the “Plant response rating (0 = no effect, 100 = complete control), Goosegrass” value in the assay with goosegrass (125 g ai/ha, preemergence) stood at 95.
Take `CCOC(=O)c1cccc(NC(=O)c2cc(C3(C)CC3)nn2CC)c1` [Compound 295]: the “Plant response rating, Bermudagrass” value was determined as 0 in the assay on bermudagrass (setting [7]); 0 in the assay on bermudagrass (setting [8]); 0 with bermudagrass (postemergence, 31 g ai/ha, scale 0 to 100); 0 with bermudagrass (setting [9]). Further, the entries for the “Plant response rating, Cupgrass, Woolly” value in the assay with woolly cupgrass (setting [7]), in the assay on woolly cupgrass (setting [8]) and with woolly cupgrass (setting [9]) were 15, 15 and 10, respectively. In addition, the “Sedge, Umbrella plant response rating” value in assay [2] (62 g ai/ha, scale 0 to 100) was determined as 80; in assay [2] (setting [10]) it was 80; in assay [2] (setting [11]), 80. The “Plant response rating, Sedge, Umbrella” value in assay [2] (setting [12]) stood at 80. For the same compound, the “Plant response rating, Ragweed” value in the assay on common ragweed (setting [7]) is 40; with common ragweed (setting [8]) it was 30; in the assay on common ragweed (setting [9]), 25. For the same compound, the “Plant response rating, Foxtail, Giant” value with giant foxtail (setting [7]) stood at 40; in the assay on giant foxtail (setting [8]), 35; with giant foxtail (setting [9]), 30. The “Plant response rating, Goosegrass” value in the assay with goosegrass (setting [7]) amounted to 50; in the assay on goosegrass (setting [8]) it was 20; with goosegrass (setting [9]) it was 20.
On to `CCNC(=O)c1cccc(NC(=O)c2nn(C(C)(C)C)cc2Br)c1` [Compound 221, 4-bromo-1-(1,1-dimethylethyl)-N-[3-[(ethylamino)carbonyl]phenyl]-1H-pyrazole-3-carboxamide], for which the pest or weed control at 62 g/ha in the assay on bermudagrass (Cynodon dactylon, pre-emergence, 312 h, 62 g ai/ha, preemergence, scale 0 to 100, 0 no effect, 100 complete control, read-out: Plant response rating, Bermudagrass) is 0%; in assay [1] (Helianthus annuus, pre-emergence, 62 g ai/ha, preemergence, scale 0 to 100, read-out: Plant response rating, Sunflower) it was 0%; in the assay on woolly cupgrass (Eriochloa villosa, pre-emergence, 312 h, 62 g ai/ha, preemergence, scale 0 to 100, read-out: Plant response rating, Cupgrass, Woolly), 0%; with common ragweed (Ambrosia artemisiifolia, pre-emergence, 62 g ai/ha, preemergence, scale 0 to 100, read-out: Plant response rating, Ragweed) it was 0%; in the assay on giant foxtail (Setaria faberi, pre-emergence, 312 h, 62 g ai/ha, preemergence, scale 0 to 100, read-out: Plant response rating, Foxtail, Giant) it was 0%; in the assay on goosegrass (Eleusine indica, pre-emergence, 312 h, 62 g ai/ha, preemergence, scale 0 to 100, read-out: Plant response rating, Goosegrass) it was 0%. The pest or weed control at 125 g/ha in the assay with bermudagrass (Cynodon dactylon, pre-emergence, 312 h, 125 g ai/ha, scale 0 (no effect) to 100 (complete control), visual, 12 to 14 days, read-out: Plant response rating, Bermudagrass) amounted to 10%; in the assay on woolly cupgrass (Eriochloa villosa, pre-emergence, 312 h, 125 g ai/ha, scale 0 (no effect) to 100 (complete control), visual, 12 to 14 days, read-out: Plant response rating, Cupgrass, Woolly), 0%; in the assay with giant foxtail (Setaria faberi, pre-emergence, 312 h, 125 g ai/ha, scale 0 (no effect) to 100 (complete control), visual, 12 to 14 days, read-out: Plant response rating, Foxtail, Giant), 0%; in the assay on goosegrass (Eleusine indica, pre-emergence, 312 h, 125 g ai/ha, scale 0 (no effect) to 100 (complete control), visual, 12 to 14 days, read-out: Plant response rating, Goosegrass), 0%. The pest or weed control at 250 g/ha stood at 85% in the assay on bermudagrass (Cynodon dactylon, pre-emergence, 312 h, 250 g ai/ha, scale 0-100, read-out: Plant response rating, Bermudagrass); 0% in assay [1] (Helianthus annuus, pre-emergence, 250 g ai/ha, scale 0-100, read-out: Plant response rating, Sunflower); 0% in the assay on woolly cupgrass (Eriochloa villosa, pre-emergence, 312 h, 250 g ai/ha, scale 0-100, read-out: Plant response rating, Cupgrass, Woolly); 40% in the assay with giant foxtail (Setaria faberi, pre-emergence, 312 h, 250 g ai/ha, scale 0-100, read-out: Plant response rating, Foxtail, Giant); 0% in the assay on goosegrass (Eleusine indica, pre-emergence, 312 h, 250 g ai/ha, scale 0-100, read-out: Plant response rating, Goosegrass). In addition, the pest or weed control at 500 g/ha in the assay on bermudagrass (Cynodon dactylon, pre-emergence, 312 h, Preemergence, 500 g ai/ha, scale 0 to 100, 0 no effect, 100 complete control, read-out: Bermudagrass plant response rating) turned out to be 85%; in assay [1] (Helianthus annuus, pre-emergence, 500 g ai/ha, scale 0 to 100 (0 no effect, 100 complete control), visual, 12 to 14 days, read-out: Plant response rating, Sunflower) it was 30%; in the assay on woolly cupgrass (Eriochloa villosa, pre-emergence, 312 h, 500 g ai/ha, scale 0 to 100 (0 no effect, 100 complete control), visual, 12 to 14 days, read-out: Plant response rating, Cupgrass, Woolly), 10%; in the assay on common ragweed (Ambrosia artemisiifolia, pre-emergence, 500 g ai/ha, scale 0 to 100 (0 no effect, 100 complete control), visual, 12 to 14 days, read-out: Plant response rating, Ragweed) it was 60%; with giant foxtail (Setaria faberi, pre-emergence, 312 h, 500 g ai/ha, scale 0 to 100 (0 no effect, 100 complete control), visual, 12 to 14 days, read-out: Plant response rating, Foxtail, Giant), 90%; in the assay with goosegrass (Eleusine indica, pre-emergence, 312 h, 500 g ai/ha, scale 0 to 100 (0 no effect, 100 complete control), visual, 12 to 14 days, read-out: Plant response rating, Goosegrass), 50%.
Consider `CCc1nn(C(C)C)nc1C(=O)Nc1cccc(C(=O)N2CCCCC2)c1` [Compound 385], for which the “Plant response rating, Bermudagrass” value with bermudagrass (setting [3]) was found to be 55; with bermudagrass (setting [4]), 100; in the assay on bermudagrass (setting [5]), 100. Further, the “Plant response rating (0 = no effect, 100 = complete control), Bermudagrass” value with bermudagrass (125 g ai/ha, preemergence) turned out to be 85. In addition, the “Plant response rating, Cupgrass, Woolly” value is on record as 0 in the assay on woolly cupgrass (setting [6]), 80 with woolly cupgrass (setting [4]) and 95 in the assay on woolly cupgrass (setting [5]). For the same compound, in the assay with woolly cupgrass (125 g ai/ha, preemergence), the “Plant response rating (0 = no effect, 100 = complete control), Cupgrass, Woolly” value amounted to 60. The “Sedge, Umbrella plant response rating” value in assay [2] (62 g ai/ha, scale 0 to 100) was 75; in assay [2] (setting [10]), 75; in assay [2] (setting [11]) it was 80. The “Plant response rating, Sedge, Umbrella” value in assay [2] (setting [12]) is recorded as 85. For the same compound, the “Plant response rating, Ragweed” value amounted to 0 with common ragweed (setting [6]), 90 in the assay on common ragweed (setting [4]) and 95 in the assay on common ragweed (setting [5]). In the assay on common ragweed (125 g ai/ha, preemergence), the “Plant response rating (0 = no effect, 100 = complete control), Ragweed” value was found to be 20. For the same compound, the “Plant response rating, Foxtail, Giant” value amounted to 40 in the assay on giant foxtail (setting [6]), 95 in the assay with giant foxtail (setting [4]) and 100 in the assay on giant foxtail (setting [5]). The “Plant response rating (0 = no effect, 100 = complete control), Foxtail, Giant” value in the assay on giant foxtail (125 g ai/ha, preemergence) is recorded as 80. The “Plant response rating, Goosegrass” value in the assay with goosegrass (setting [6]) was 70; in the assay on goosegrass (setting [4]), 95; in the assay with goosegrass (setting [5]), 100. Moreover, the “Plant response rating (0 = no effect, 100 = complete control), Goosegrass” value in the assay on goosegrass (125 g ai/ha, preemergence) is given as 80.
